In patent publication US20170260519A1, “METHOD OF CULTIVATING MICROORGANISMS HAVING NITRILE HYDRATASE ACTIVITY” (priority 2014, published 2017):

Legend:
[1] = tested on: R. rhodochrous “CIBA” (NCIMB 41164); test: Relative nitrile hydratase activity after cultivation of R. rhodochrous "CIBA" with different carbon sources; assay type: cell-based, Rhodococcus rhodochrous; settings: 10 g/l, 64 h
Procedure: In context with the present invention, activity of an nitrile hydratase in the sense of the present invention can be determined as follows: First reacting 100 μl of a cell suspension, cell lysate, dissolved enzyme powder or any other preparation containing the supposed nitrile hydratase with 875 μl of an 50 mM potassium phosphate buffer and 25 μl of acrylonitrile at 25° C. on an eppendorf tube shaker at 1,000 rpm for 10 minutes. After 10 minutes of reaction time, samples are drawn and immediately quenched by adding the same volume of 1.4% hydrochloric acid. After mixing of the sample, cells are removed by centrifugation for 1 minute at 10,000 rpm and the amount of acrylamide formed is determined by analyzing the clear supernatant by HPLC. The concentration of acrylamide shall be between 0.25 and 1.25 mmol/l—if necessary, the sample has to be diluted accordingly and the conversion has to be repeated. The enzyme activity is deduced from the concentration of acrylamide by dividing the acrylamide concentration derived from HPLC analysis by the reaction time, which has been 10 minutes and by multiplying this value with the dilution factor between HPLC sample and original sample. […]) and/or to the nucleotide sequence of SEQ ID NO: 3 (beta-subunit of nitrile hydratase of R. rhodochrous: […]), provided that the polypeptide encoded by said polynucleotide is capable of catalyzing hydration of acrylonitrile to acrylamide (i.e. has nitrile hydratase activity) as described and exemplified herein. […] VIV) and/or to the amino acid sequence of SEQ ID NO: 4 (beta-subunit of nitrile hydratase of R. rhodochrous: […]), provided that said polypeptide is capable of catalyzing hydration of acrylonitrile to acrylamide as described and exemplified herein.
Different sugar/organic acid ratios were evaluated for different strains of Rhodococcus (R. rhodochrous “CIBA” (NCIMB 41164) and R. rhodochrous “J1” (FERM BP-1478)), in a microfermentation system.
The basic cultivation medium contained yeast extract (Biospringer) (1.25 g/l), KH2PO4 (10 g/l), K2HPO4 (10 g/l), (NH4)2SO4 (1 g/l), MgSO4*7H2O (0.375 g/l), CaCl2*2H2O (25 mg/l), Trace element solution (2.5 g/l) (see below), Co(NO3)2 (31.2 mg/l), anti-foam P2000 (BASF) (62.5 mg/l), urea (7 g/l), and ammonium glutamate (2.5 g/l) in H2O.
Trace Element Solution: Citric acid mono hydrate (40 g/l), ZnSO4*7H2O (11 g/l), (NH4)2Fe(SO4)2*6H2O (8.5 g/l), MnSO4*H2O (3 g/l), and CuSO4*5H2O (0.8 g/l) in H2O.
(§1) The medium was then supplemented with 10 g/l of carbon source (saccharide, organic acid or mixture of both as indicated in the Tables below). pH was adjusted to 6.6 using H3PO4 or NaOH. The medium was inoculated directly from cryo stocks to OD 0.05 (measured at 600 nm). Cultivation was carried out at 37° C. for 64 h at 1,100 rpm in a BioLector micro fermentation system (M2P Labs, Baesweiler, Germany) using 48-well flower plates with a working volume of 1.5 ml. After cultivation, samples were drawn, quenched with hydrochloric acid and nitrile hydratase activity was determined as described in Example 2.
Nitrile hydratase activities achieved with the saccharide as sole carbon source were set to 100%.

[2] = tested on: R. rhodochrous “J1” (FERM BP-1478); test: Relative nitrile hydratase activity after cultivation of R. rhodochrous "J1" with different carbon sources; assay type: cell-based, Rhodococcus rhodochrous; settings: 10 g/l, 64 h
Procedure: In context with the present invention, activity of an nitrile hydratase in the sense of the present invention can be determined as follows: First reacting 100 μl of a cell suspension, cell lysate, dissolved enzyme powder or any other preparation containing the supposed nitrile hydratase with 875 μl of an 50 mM potassium phosphate buffer and 25 μl of acrylonitrile at 25° C. on an eppendorf tube shaker at 1,000 rpm for 10 minutes. After 10 minutes of reaction time, samples are drawn and immediately quenched by adding the same volume of 1.4% hydrochloric acid. After mixing of the sample, cells are removed by centrifugation for 1 minute at 10,000 rpm and the amount of acrylamide formed is determined by analyzing the clear supernatant by HPLC. The concentration of acrylamide shall be between 0.25 and 1.25 mmol/l—if necessary, the sample has to be diluted accordingly and the conversion has to be repeated. The enzyme activity is deduced from the concentration of acrylamide by dividing the acrylamide concentration derived from HPLC analysis by the reaction time, which has been 10 minutes and by multiplying this value with the dilution factor between HPLC sample and original sample. […]
Different sugar/organic acid ratios were evaluated for different strains of Rhodococcus (R. rhodochrous “CIBA” (NCIMB 41164) and R. rhodochrous “J1” (FERM BP-1478)), in a microfermentation system. […]
as §1, with “Cultivation was carried out at 37° C. for 64 h at 1,100 rpm in a BioLector micro fermentation system (M2P Labs, Baesweiler, Germany) using 48-well flower plates with a working volume of 1.5 ml.” left out, “2. […]” for “2.”

[3] = Only acid as carbon source, 37° C., fructose as sole carbon source = 100%
[4] = Only acid as carbon source, 37° C., glucose as sole carbon source = 100%
[5] = Only acid as carbon source, 37° C., mannose as sole carbon source = 100%
[6] = Only acid as carbon source, 37° C., ribose as sole carbon source = 100%
[7] = Only saccharide as carbon source, set to 100%

Structure (SMILES) | relative nitrile hydratase activity [1, 3] | relative nitrile hydratase activity [1, 4] | relative nitrile hydratase activity [1, 5] | relative nitrile hydratase activity [1, 6] | relative nitrile hydratase activity [2, 3] | relative nitrile hydratase activity [2, 4] | relative nitrile hydratase activity [1, 7] | relative nitrile hydratase activity [2, 7]
O=C(O)CC(O)C(=O)O (stereo not drawn) [Malic, malic acid] | 39% | 197% | 1579% | 1693% | – | – | – | –
CC(O)C(=O)O (stereo not drawn) [Lactic, lactic acid] | – | – | – | – | 73% | 1963% | – | –
O=C(CO)[C@@H](O)[C@H](O)[C@H](O)CO [Fructose, fructose] | – | – | – | – | – | – | 100% | 100%
O=C(O)CCC(=O)O [Succinic, succinic acid] | 30% | 150% | 1204% | 1291% | – | – | – | –
O=C(O)CC(O)(CC(=O)O)C(=O)O [Citric, citric acid] | 32% | 164% | 1315% | 1409% | – | – | – | –
O=C[C@H](O)[C@H](O)[C@H](O)CO [Ribose, ribose] | – | – | – | – | – | – | 100% | –
O=C(O)C(O)C(O)C(=O)O (stereo not drawn) [Tartaric, tartaric acid] | 34% | 173% | 1388% | 1487% | – | – | – | –
